These results are taken from PMC12040169 (PLOS Biology, 2025).

The nature of the data set: in vitro. The following applies: human, hela cells, % viability.

Take `CC(=O)Nc1cccc(C(=O)N2CCN(Cc3ccc4c(c3)OCO4)CC2)c1` [CBK270031]: the viability at 28.5 h, 10 µM was 89.2%.

As to `CSc1ccc(-c2cnc(N)c(-c3ccc(C(=O)N4CCOCC4)cc3)n2)cc1` [CBK084539], the viability at 28.5 h, 10 µM is 109%.

Take `COc1cc2nnnn2c(-c2ccccc2)n1` [CBK026189]: the viability at 28.5 h, 10 µM was 102%.

For `Cc1ccc(N(CC(=O)NN=C2CCCCCCCCCCC2)S(=O)(=O)c2ccccc2)cc1` [CBK262192], the viability at 28.5 h, 10 µM turned out to be 105%.

For the compound `O=C1CCCC[C@]2(CN(Cc3ccccc3)C[C@H]2c2ccccn2)N1` [CBK283340], the viability at 28.5 h, 10 µM is 82.6%.

Take `Cc1cc(COc2nc3ccccc3nc2N2CCCC2C(=O)OC(C)(C)C)no1` (centres unmarked) [CBK173753]: the viability at 28.5 h, 10 µM was determined as 85.8%.

Consider `COc1cc2c(cc1OC)C1(CCN(CCc3c[nH]c4ccccc34)CC1)NC(=O)C2` [CBK039992], for which the viability at 28.5 h, 10 µM was 99.3%.

As for `CCNC(=O)N1CC[C@H]2CC(=O)N(Cc3cccnc3)CC[C@H]2C1` [CBK288792], the viability at 28.5 h, 10 µM was determined as 85.6%.

With `O=C(c1ccco1)N1CCN(c2cncc(-c3ccc4ccccc4c3)n2)CC1` [CBK065184], the viability at 28.5 h, 10 µM was 89%.

For `c1ccc([C@@H]2CN(Cc3ccccn3)C[C@H]2c2cc[nH]n2)cc1` [CBK285162], the viability at 28.5 h, 10 µM was 105%.

`O=C(NCc1ccccn1)c1ccccc1Nc1cccc(C(F)(F)F)c1` [CBK107252]: the viability at 28.5 h, 10 µM stood at 86.3%.

`CCNc1cc(-c2ccco2)ncn1` [CBK090879]: the viability at 28.5 h, 10 µM came to 108%.

As for `CC(C)c1ccc(C(C)NC(=O)Cn2cccc(C(=O)Nc3ccc(F)cc3)c2=O)cc1` (centres unmarked) [CBK286043], the viability at 28.5 h, 10 µM worked out at 89.3%.

`COc1ncccc1C(=O)Nc1ccc(C)nc1C` [CBK200292]: the viability at 28.5 h, 10 µM was 90.6%.

Consider `Cc1cc2ncc3c(n2n1)NC(c1ccc(Cl)cc1Cl)NC3=O` (centres unmarked) [CBK291167], for which the viability at 28.5 h, 10 µM came out at 90.8%.

In the case of `COc1ccc(/C=N/NC(=O)Cc2cccn2C)cc1[N+](=O)[O-]` [CBK262789], the viability at 28.5 h, 10 µM turned out to be 99.1%.

As for `COc1cc(/C=C2\C=C(c3ccc(-c4ccccc4)cc3)OC2=O)ccc1O` [CBK265594], the viability at 28.5 h, 10 µM worked out at 88.5%.

Take `Nc1nccc(-c2cc(OCC(F)(F)F)ccc2OCC(F)(F)F)n1` [CBK005948]: the viability at 28.5 h, 10 µM is 94.6%.

As for `CSCCC(=O)N1CCC2(CCN(Cc3ccccc3)CC2)C1` [CBK136757], the viability at 28.5 h, 10 µM was found to be 101%.

In the case of `CCn1nc(C)c(C(C)NC(=O)C(C)n2cc(Cl)cn2)c1C` (centres unmarked) [CBK281550], the viability at 28.5 h, 10 µM was determined as 89.7%.

In the case of `COc1ccc(CNC(=O)CSc2nnc(-c3ccncc3)n2C)cc1` [CBK266613], the viability at 28.5 h, 10 µM was 95%.

Regarding `O=C(NC1CCCCC1)C1CCCN(C(=O)NCc2ccccn2)C1` (centres unmarked) [CBK305814], the viability at 28.5 h, 10 µM turned out to be 114%.

For `O=[N+]([O-])c1ccc(CN2CCN(c3nccnc3OCCN3CCOCC3)CC2)cc1` [CBK082892T], the viability at 28.5 h, 10 µM turned out to be 99.8%.

Take `c1ccc(N2CCN(Cc3cncn3C3CCCCC3)CC2)nc1` [CBK307345]: the viability at 28.5 h, 10 µM was determined as 109%.

As to `O=C(C1CC1)N1CCCC1c1nc(-c2ccc(F)cc2)n[nH]1` (centres unmarked) [CBK283934], the viability at 28.5 h, 10 µM came to 102%.

As for `CN1CCN(C(=O)c2cc(Br)cnc2NCc2cccnc2)CC1` [CBK076347], the viability at 28.5 h, 10 µM was 87.3%.

As to `O=C(NCC1(O)CCSCC1)c1ccc2ccccc2n1` [CBK305211], the viability at 28.5 h, 10 µM was 85%.

Turning to `CCN1CCN(C2CCN(Cc3ccccc3[N+](=O)[O-])CC2)CC1` [CBK264631G], the viability at 28.5 h, 10 µM stood at 98.1%.

On to `Cc1cc(-c2cncc(-c3ccc(O)cc3)n2)ccc1S(=O)(=O)N1CCOCC1` [CBK131460], for which the viability at 28.5 h, 10 µM turned out to be 92.4%.

With `O=S(=O)(NCc1cccc(F)c1F)c1cc2c(N3CCNCC3)nccc2s1` [CBK047588C], the viability at 28.5 h, 10 µM came out at 103%.

For the compound `O=S(=O)(Nc1ncc(Br)c2cccnc12)c1ccc(Cl)c(Cl)c1` [CBK073888], the viability at 28.5 h, 10 µM came to 89.5%.

Regarding `NC(CCC(=O)O)C(=O)O` (centres unmarked) [CBK260875C], the viability at 28.5 h, 10 µM was determined as 97.3%.

Take `O=C(NCC(F)F)c1cn2cc(-c3cccs3)n(CC3CC3)c(=O)c2n1` [CBK307347]: the viability at 28.5 h, 10 µM came to 105%.

For the compound `COc1ccc([C@]23CC[C@H](NC(=O)c4ccc(C(F)(F)F)c(F)c4)C[C@H]2CN(C)C3)cc1OC` [CBK082743T], the viability at 28.5 h, 10 µM stood at 110%.

As for `CCN(CC)C(=O)CN1C(=O)N2CCCN=C2c2ccc(Cl)cc21` [CBK284386], the viability at 28.5 h, 10 µM was found to be 91.7%.

Consider `CCCc1n[nH]c(C(C)C)c1C(=O)OCC` [CBK115724], for which the viability at 28.5 h, 10 µM was determined as 98.7%.

Consider `Cc1cc(S(=O)(=O)NCCn2nc(C)c(C)c2C)ccc1F` [CBK281382], for which the viability at 28.5 h, 10 µM was found to be 71.9%.

`Cc1cc(N2CCN(C(=O)OC(C)(C)C)CC2)nc(N)n1` [CBK001843]: the viability at 28.5 h, 10 µM came out at 110%.

Regarding `COc1ccc(CCNc2nc3c([nH]2)c(=O)n(C)c(=O)n3C)cc1` [CBK269897], the viability at 28.5 h, 10 µM came out at 85.5%.

Regarding `Cc1cc2c(s1)c1cnn(CC(=O)NCC3CC3)c(=O)c1n2C` [CBK284222], the viability at 28.5 h, 10 µM was 91.2%.

Consider `CC(=O)OCC(=O)N1CCC(N(C)Cc2ccc(-c3ccc(S(C)(=O)=O)cc3)nc2)CC1` [CBK165268], for which the viability at 28.5 h, 10 µM was determined as 116%.

On to `Cc1ccc(OCC(=O)NNC(=O)c2ccco2)cc1` [CBK261800], for which the viability at 28.5 h, 10 µM is 96.1%.

As to `Cc1ccc2cc(CN(Cc3ccc(N(C)C)cc3)C(=O)NC3CCCCC3)c(=O)[nH]c2c1C` [CBK132070], the viability at 28.5 h, 10 µM stood at 97.3%.

Regarding `O=C(c1cccc(F)c1)N1CCCC1c1cc2cccnc2[nH]1` (centres unmarked) [CBK285081], the viability at 28.5 h, 10 µM was determined as 93.1%.

In the case of `Cc1cc(N(C)CCOc2ccccc2F)nc(N)n1` [CBK305969], the viability at 28.5 h, 10 µM is 79.6%.

Consider `CCc1nc(C)ccc1OCC(O)CNC(C)(C)C` (centres unmarked) [CBK019698], for which the viability at 28.5 h, 10 µM was found to be 94.3%.

Take `Cc1cc2c(N3CCCC(NS(C)(=O)=O)C3)nccc2o1` (centres unmarked) [CBK306464]: the viability at 28.5 h, 10 µM turned out to be 93.4%.

For `CN(C)c1cccc(Nc2ccc(-c3ccco3)cn2)c1` [CBK036885], the viability at 28.5 h, 10 µM was determined as 96.8%.

Consider `CC(=O)c1ccc(NC(=O)CSc2nnc(-c3ccc4ccccc4n3)s2)cc1` [CBK269205], for which the viability at 28.5 h, 10 µM is 97.6%.

As to `COc1ccccc1CNC(=O)c1cnc2scc(C)n2c1=O` [CBK287293], the viability at 28.5 h, 10 µM was determined as 102%.

As to `COCCCNC(=O)CN1CCCCC1Cn1nc(C)cc1C` (centres unmarked) [CBK304009], the viability at 28.5 h, 10 µM came to 104%.

For the compound `O=C(O)CCC(=O)N1CCC(c2nnc3ccccn23)CC1` [CBK287920], the viability at 28.5 h, 10 µM is 104%.

On to `Cc1c(C(=O)Nc2nc(-c3ccc(S(=O)(=O)N4CCOCC4)cc3)cs2)oc2ccc(Cl)cc12` [CBK267663], for which the viability at 28.5 h, 10 µM is 93.7%.

Consider `O=C(NCc1cccnc1)c1ncoc1-c1cccc(Cl)c1` [CBK282403], for which the viability at 28.5 h, 10 µM was determined as 85.4%.

Take `CCc1nnc(NS(=O)(=O)c2ccc(NC(=S)Nc3ccc(F)cc3)cc2)s1` [CBK050037]: the viability at 28.5 h, 10 µM stood at 89.7%.

For the compound `O=[N+]([O-])c1ccc(Cl)cc1N/N=C1\CN2CCC1CC2` [CBK217272], the viability at 28.5 h, 10 µM was 108%.

In the case of `CCc1nn(CC(=O)NCC2CC2)c(=O)c2cc3sc(C)cc3n12` [CBK284100], the viability at 28.5 h, 10 µM stood at 85.7%.

As to `Cc1cccc(C)c1NC(=O)C(C#N)C(=O)c1nn(-c2ccccc2)c2c1CSc1ccccc1-2` (centres unmarked) [CBK017678], the viability at 28.5 h, 10 µM came to 81.8%.

For the compound `COc1ccc(CN2CCN(c3nccnc3OC)CC2)cc1` [CBK084216], the viability at 28.5 h, 10 µM is 89.6%.

Take `COc1ccc(/C=C(/C#N)C(=O)Nc2cccc(C)c2C)cc1C(=O)O` [CBK262751]: the viability at 28.5 h, 10 µM was 87.4%.

In the case of `CC(C)[C@H]1CN(Cc2ccccc2F)CCN1C(=O)Cn1ncc2ccccc2c1=O` [CBK286172], the viability at 28.5 h, 10 µM was found to be 82.2%.

For the compound `Cc1ccc2[nH]c(SCC(=O)Nc3cccc(NC(=O)C45CC6CC(CC(C6)C4)C5)c3)nc2c1` [CBK265679], the viability at 28.5 h, 10 µM worked out at 96.3%.

As for `Nc1nc2cccnc2cc1-c1cccc(C(F)(F)F)c1` [CBK081200], the viability at 28.5 h, 10 µM was determined as 103%.

Turning to `O=C(CC1(O)C(=O)N(Cc2ccccc2Cl)c2ccccc21)c1cc2ccccc2oc1=O` (centres unmarked) [CBK265255], the viability at 28.5 h, 10 µM came to 96.2%.

`COc1ccccc1N1CCN(c2nccc3sc(S(=O)(=O)NC4CCC4)cc23)CC1` [CBK038248C]: the viability at 28.5 h, 10 µM turned out to be 87.7%.

`NCCCNC(=O)c1ccc(/C=N/O)nc1` [CBK264524]: the viability at 28.5 h, 10 µM came to 110%.

In the case of `Cc1nn(CC(=O)N2CCCC2)c(=O)c2cc3sccc3n12` [CBK284024], the viability at 28.5 h, 10 µM was determined as 95.2%.

With `Cc1cc(C)n(CC2CCCCN2C(=O)COc2cccnc2)n1` (centres unmarked) [CBK304040], the viability at 28.5 h, 10 µM was determined as 105%.

As to `O=C(NCC(c1ccco1)N1CCCC1)C1CCCCC1` (centres unmarked) [CBK304560], the viability at 28.5 h, 10 µM worked out at 88.7%.

As for `O=C1CC[C@@H](NCc2ccccn2)[C@H](c2cc(F)cc(F)c2)N1` [CBK282911], the viability at 28.5 h, 10 µM was 98.8%.

For the compound `OC(Cn1nnc2ccccc21)Cn1c(-c2ccccc2)c(-c2ccccc2)c2ccc3ccccc3c21` (centres unmarked) [CBK264054G], the viability at 28.5 h, 10 µM was determined as 92.9%.

Regarding `CC1=CCC2C(=O)N(C(CC(C)C)C(=O)O)C(=O)C2C1` (centres unmarked) [CBK287172], the viability at 28.5 h, 10 µM turned out to be 94.6%.

With `CC(C)Cn1c(SCC(=O)N2CCNC2=O)nnc1-c1ccco1` [CBK295175], the viability at 28.5 h, 10 µM is 106%.

Regarding `Cn1cnnc1CCC(=O)NCC1CCN(c2ccccc2F)C1` (centres unmarked) [CBK307587], the viability at 28.5 h, 10 µM came to 76.5%.

On to `NCc1ccc(OC2CCNCC2)cc1` [CBK003920T], for which the viability at 28.5 h, 10 µM stood at 88.7%.

With `CCOC(=O)Cn1nc(-c2nonc2N)nc1-c1nonc1N` [CBK265482], the viability at 28.5 h, 10 µM was 88.5%.

For the compound `CCc1nc2c(N3CCCn4nc(C(O)C5CC5)cc4C3)ncnc2o1` (centres unmarked) [CBK307543], the viability at 28.5 h, 10 µM amounted to 78.6%.

On to `Cc1cccc2cnc(C3CCN(C(=O)c4cnn(C)c4C)CC3)cc12` [CBK285196], for which the viability at 28.5 h, 10 µM is 88.2%.

Take `CC(=O)c1cccc(-c2cnc(N)c(-c3ccc(O)cc3)n2)c1` [CBK122508]: the viability at 28.5 h, 10 µM was 98.1%.

Turning to `OCCC1CCCCN1c1cncc(-c2cccs2)n1` (centres unmarked) [CBK065758], the viability at 28.5 h, 10 µM was 104%.
